# Key:
# Test in all cases: relative viability (nuclei count vs DMSO), 5 days (fraction); higher = more cells survive
# GSK-J4 + Linsitinib = compound: CCOC(=O)CCNc1cc(N2CCc3ccccc3CC2)nc(-c2ccccn2)n1 [GSK-J4] + C[C@]1(O)C[C@@H](c2nc(-c3ccc4ccc(-c5ccccc5)nc4c3)c3c(N)nccn32)C1 [Linsitinib] (partner 1 µM)
# Summary of the method: (§1)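 After 5 days of treatment, lung cancer cells in 1536-well plates were fixed and stained in a single step (final 0.05% Triton X-100, 1% formaldehyde, 1 ug/ml Hoechst) and their nuclei counted on 4× images. Treatment had been applied by pin tool the day after seeding as one drug alone or as a fixed anchor-drug dose with five library-drug doses (not always all listed) in √10 steps. Relative viability is the nuclei count of treated wells divided by that of vehicle wells, and values are medians of duplicate plates.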
# GSK-J4 + Crizotinib = compound: CCOC(=O)CCNc1cc(N2CCc3ccccc3CC2)nc(-c2ccccn2)n1 [GSK-J4] + C[C@@H](Oc1cc(-c2cnn(C3CCNCC3)c2)cnc1N)c1c(Cl)ccc(F)c1Cl [Crizotinib] (partner 1 µM)
# Summary of the method: as §1
# AZ3146 + Pictilisib = compound: CN1CCC(CC1)OC2=CC(=C(C=C2)NC3=NC=C4C(=N3)N(C(=O)N4C)C5CCCC5)OC [AZ3146] + CS(=O)(=O)N1CCN(Cc2cc3nc(-c4cccc5[nH]ncc45)nc(N4CCOCC4)c3s2)CC1 [Pictilisib] (partner 1 µM)
# Summary of the method: as §1
# GSK-J4 + Foretinib = compound: CCOC(=O)CCNc1cc(N2CCc3ccccc3CC2)nc(-c2ccccn2)n1 [GSK-J4] + COc1cc2c(Oc3ccc(NC(=O)C4(C(=O)Nc5ccc(F)cc5)CC4)cc3F)ccnc2cc1OCCCN1CCOCC1 [Foretinib] (partner 0.25 µM)
# Summary of the method: as §1
Cell Line,relative viability (GSK-J4 + Linsitinib; first compound 0.5 µM),relative viability (GSK-J4 + Linsitinib; first compound 1.581 µM),relative viability (GSK-J4 + Linsitinib; first compound 15.81 µM),relative viability (GSK-J4 + Linsitinib; first compound 50 µM),relative viability (GSK-J4 + Crizotinib; first compound 0.5 µM),relative viability (GSK-J4 + Crizotinib; first compound 1.581 µM),relative viability (GSK-J4 + Crizotinib; first compound 15.81 µM),relative viability (GSK-J4 + Crizotinib; first compound 50 µM),relative viability (AZ3146 + Pictilisib; first compound 0.08 µM),relative viability (AZ3146 + Pictilisib; first compound 0.253 µM),relative viability (AZ3146 + Pictilisib; first compound 0.8 µM),relative viability (AZ3146 + Pictilisib; first compound 2.53 µM),relative viability (AZ3146 + Pictilisib; first compound 8 µM),relative viability (GSK-J4 + Foretinib; first compound 0.5 µM),relative viability (GSK-J4 + Foretinib; first compound 1.581 µM),relative viability (GSK-J4 + Foretinib; first compound 5 µM),relative viability (GSK-J4 + Foretinib; first compound 15.81 µM),relative viability (GSK-J4 + Foretinib; first compound 50 µM),relative viability (GSK-J4 + Linsitinib; first compound 5 µM),relative viability (GSK-J4 + Crizotinib; first compound 5 µM)
NCI-H1975,0.871,0.934,0.982,1.17,0.928,1.02,0.998,1,0.266,0.343,0.305,0.303,0.304,0.947,0.785,0.732,0.95,1.04,,
EBC-1,0.937,0.758,0.795,0.709,0.191,0.206,0.212,0.19,0.366,0.412,0.351,0.388,0.244,0.0939,0.0899,0.0897,0.0966,0.103,0.789,0.192
NCI-H727,0.245,,0.267,0.222,0.782,,0.771,0.443,0.324,0.431,0.328,0.605,0.316,0.808,0.835,1.03,0.99,0.518,0.568,1.01
Calu-6,0.868,0.924,0.927,0.869,0.726,0.618,0.76,0.685,0.871,0.984,0.865,0.859,0.515,0.83,0.867,0.867,0.839,0.822,0.719,0.828
COR-L23,0.909,0.933,0.868,0.807,0.671,0.567,0.639,0.518,0.643,0.922,0.824,0.77,0.667,0.927,0.901,,0.897,0.822,,
LK-2,0.69,0.449,0.537,0.602,0.256,0.212,0.191,0.244,0.49,,,0.668,0.668,1.26,,1.31,0.794,0.805,0.774,0.203
201T,1.02,1.08,1.04,1.06,1.01,1.07,1.02,0.996,0.634,0.643,0.656,0.707,0.596,1.1,1.09,1.07,0.923,1.06,1.1,1.01
HCC-827,0.932,0.955,0.902,0.87,0.963,0.931,0.91,0.848,0.965,0.971,0.987,1.2,0.928,1.02,1.07,1.05,0.955,0.847,0.889,0.933
NCI-H650,0.733,0.672,0.723,0.592,0.568,0.594,0.494,0.434,0.661,0.837,0.634,0.905,1.01,0.972,1.01,0.686,0.941,0.712,0.537,0.525
HARA,0.891,0.608,0.797,0.699,0.975,0.962,0.942,0.662,0.264,0.537,0.387,0.594,0.244,0.863,,,0.805,0.751,,
NCI-H661,0.549,0.565,0.425,0.36,0.873,0.969,0.913,0.814,0.489,0.417,0.34,0.463,0.446,0.983,0.995,0.86,0.969,0.805,0.608,1.04
NCI-H2087,0.791,0.94,0.864,0.641,0.685,0.767,0.859,0.516,1.14,0.926,0.669,0.968,0.847,0.973,,1.13,1.1,0.818,,
NCI-H2405,1.03,0.919,1.07,1.1,0.847,0.794,0.751,0.664,0.533,,0.418,0.451,0.58,1.06,0.948,,0.98,1.04,,
NCI-H647,0.964,0.993,1.2,0.79,1.01,0.759,0.991,1.01,0.485,0.423,0.258,0.366,0.476,1.1,0.855,1.07,1.2,1.09,1.03,0.865
A549,0.559,,0.442,0.578,0.691,0.669,0.536,0.605,0.475,0.503,0.483,0.404,0.139,0.84,0.874,0.907,0.911,0.828,0.733,
NCI-H596,1,1.08,0.938,1.02,1.11,1.04,0.949,0.992,0.361,0.374,0.413,0.302,0.41,0.928,0.657,0.892,0.673,0.823,1.07,0.932
EMC-BAC-2,0.781,0.728,0.715,0.794,0.712,0.695,0.743,0.733,0.524,0.56,0.564,0.607,0.597,0.93,0.937,0.685,0.982,0.647,0.83,0.726

Cell Line,relative viability (GSK-J4 + Linsitinib; first compound 0.5 µM),relative viability (GSK-J4 + Linsitinib; first compound 1.581 µM),relative viability (GSK-J4 + Linsitinib; first compound 15.81 µM),relative viability (GSK-J4 + Linsitinib; first compound 50 µM),relative viability (GSK-J4 + Crizotinib; first compound 0.5 µM),relative viability (GSK-J4 + Crizotinib; first compound 1.581 µM),relative viability (GSK-J4 + Crizotinib; first compound 15.81 µM),relative viability (GSK-J4 + Crizotinib; first compound 50 µM),relative viability (AZ3146 + Pictilisib; first compound 0.08 µM),relative viability (AZ3146 + Pictilisib; first compound 0.253 µM),relative viability (AZ3146 + Pictilisib; first compound 0.8 µM),relative viability (AZ3146 + Pictilisib; first compound 2.53 µM),relative viability (AZ3146 + Pictilisib; first compound 8 µM),relative viability (GSK-J4 + Foretinib; first compound 0.5 µM),relative viability (GSK-J4 + Foretinib; first compound 1.581 µM),relative viability (GSK-J4 + Foretinib; first compound 5 µM),relative viability (GSK-J4 + Foretinib; first compound 15.81 µM),relative viability (GSK-J4 + Foretinib; first compound 50 µM),relative viability (GSK-J4 + Linsitinib; first compound 5 µM),relative viability (GSK-J4 + Crizotinib; first compound 5 µM)
SK-MES-1,0.994,0.975,0.993,0.994,0.987,0.977,0.939,0.942,0.349,0.376,0.388,0.371,0.373,0.808,0.757,0.843,0.624,0.866,0.827,0.724
H3255,0.902,0.952,0.84,0.707,0.869,0.767,0.764,0.642,0.514,0.49,0.466,0.507,0.518,0.856,0.85,0.846,0.844,0.804,0.838,0.855
NCI-H1651,0.959,0.878,0.9,0.939,0.854,0.737,0.817,0.85,0.556,0.668,0.576,0.475,0.489,0.765,0.905,0.922,0.663,0.8,1.05,0.92
NCI-H23,0.557,,0.54,0.594,0.553,,0.413,0.422,0.453,0.568,0.483,0.494,0.451,0.999,0.885,0.942,0.802,0.847,0.694,0.456
NCI-H1355,0.714,0.742,0.809,0.816,1.06,0.962,1.02,1.04,0.334,0.452,0.525,0.467,0.512,0.878,0.837,1.08,0.839,0.859,0.871,1.22
NCI-H2085,0.801,0.812,0.874,0.771,0.839,0.609,0.794,0.906,0.486,0.433,0.506,0.547,0.438,0.697,0.882,0.861,1.05,0.971,0.926,0.617
NCI-H322M,0.858,0.929,0.828,0.825,0.976,0.779,0.91,0.83,0.585,0.478,0.439,0.491,0.512,1.01,0.884,1.27,0.815,0.712,0.955,0.828
NCI-H1915,1.06,0.722,1.07,1.11,0.852,0.826,0.915,0.804,0.748,0.911,1.11,1,1.07,1.04,1.03,,1.06,0.523,1.09,0.87
HOP-62,0.952,0.78,0.835,0.855,0.798,1,0.994,0.847,0.561,0.719,0.627,0.895,0.548,1,0.882,1.02,1.03,0.766,0.83,0.965
LXF-289,0.973,0.912,0.915,0.893,0.71,0.768,0.806,0.753,0.693,0.776,0.779,0.824,0.642,0.974,0.93,1.01,0.929,0.924,0.956,0.776
LCLC-103H,0.914,0.978,1.06,1.04,1.01,0.811,0.916,0.988,0.548,0.672,0.557,0.492,0.555,0.8,0.617,0.789,0.593,0.52,1.12,1.18
NCI-H441,0.664,0.325,0.532,0.511,0.74,0.574,0.697,0.775,0.46,0.532,0.467,0.537,0.503,0.962,0.875,1.1,0.906,0.759,0.602,0.643
IA-LM,0.556,0.288,0.463,0.201,0.793,0.745,0.691,0.0902,0.306,0.425,0.354,0.381,0.225,1.09,1.15,1.32,1.16,0.334,0.634,0.867
BEN,0.91,0.706,0.925,0.823,0.865,0.795,0.759,0.688,,0.51,0.403,0.533,0.573,0.857,0.593,,0.588,0.53,,
NCI-H2009,1.19,0.873,1.17,0.947,0.955,1,1.05,0.789,0.891,0.962,0.886,0.917,0.605,1.17,1.19,,1.2,0.986,0.983,0.77
NCI-H1755,0.958,0.561,0.858,0.959,0.841,0.821,0.733,0.772,0.421,0.433,0.359,0.441,0.442,0.906,0.817,0.861,0.878,0.837,0.962,0.891

# Reference: the supplement of paper PMC10307832
